Results from patent US6864271B2, “Synergistic combinations including N-acylated 4-hydroxyphenylamine derivatives” (The Foundation for the LSU Health Sciences Center, priority 2002, dated 2005).

Legend:
mice [1] = assay: abdominal stretch assay (i.p. acetic acid); format: in vivo, mouse; settings: oral, FIG. 1; for number of abdominal stretches (percentage of control): 55 min before i.p. 10 ml/kg 0.4% acetic acid, counted 10 min
C57/b16 mice [2] = assay: hepatotoxicity study, transaminase activity after oral dosing; settings: 24 hours after oral dose in corn oil; acetaminophen/SCP-1 3.7 mmole/kg, codeine 50 mg/kg; FIG. 3
mice [3] = settings: background statement; cited from earlier work
C57/b16 mice [4] = settings: prior work (Paul et al., 1998; Bazan patents); cited from earlier work
mice [5] = settings: cited from earlier work
[6] = background statement; cited from earlier work
[7] = background statement; cited from earlier work; remark: listed apart in the source

SMILES | number of abdominal stretches (percentage of control) (mice [1]) | GPT activity in serum (C57/b16 mice [2]) | analgesic potency compared with acetaminophen (mice [1]; abdominal stretch assay, mice) | potency compared with acetaminophen, abdominal stretch (mice [3]) | hepatotoxicity (C57/b16 mice [4]) | toxicity compared with acetaminophen (mice [5]; Paul et al., 1998) | potency compared with acetaminophen, formalin [6] | potency compared with acetaminophen, Freund's adjuvant-induced inflammation [7] | LD50 (mice [5]; mice)
COc1ccc2c3c1O[C@H]1[C@@H](O)C=C[C@H]4[C@@H](C2)N(C)CC[C@@]341 [codeine, reference compound] | dose-dependent decrease | neither SCP-1 nor codeine, nor the combination of both, produced any significant increase | – | – | – | – | – | – | –
O=C(CN1C(=O)c2ccccc2S1(=O)=O)Nc1ccc(O)cc1 [SCP-1] | dose-dependent decrease | neither SCP-1 nor codeine, nor the combination of both, produced any significant increase | significantly greater than acetaminophen | more potent | lower in hepatotoxicity | lower in toxicity | more potent | more potent | –
CC(=O)Nc1ccc(O)cc1 [acetaminophen, reference compound] | dose-dependent decrease | – | – | – | – | – | – | – | 3.7 mmol/kg
